23 compounds from patent US12371428B2 (Exelixis, Inc., priority 2019, dated 2025) can be followed below.

In test [1] the target is Human MER (residues 528-999) (Homo sapiens (Human), UniProt Q12866). The experiment in a line: Human Mer kinase assay, HTRF KinEase (Example C-2). It counts as biochemical. The note with it: protocol of Example C-2 (other compounds). Put shortly:
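HTRF KinEase TK assay with MER 528-999 (1 ng/well) in enzymatic buffer plus 5 mM MgCl2 and 1 mM DTT, biotinylated peptide substrate and ATP at Km (40 μM), 3% DMSO final, 60 min at room temperature. Stopped with EDTA detection mix (SA-XL665, TK antibody-Eu3+), read at 665/620 nm after 60 min; IC50 from 10-point 4-parameter fit, normalized to DMSO and 1 μM reference.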

Test [2] addresses Met (phospho-Met, HGF-stimulated PC-3 prostate cancer cells) (Homo sapiens (Human), UniProt P08581). In words: Met autophosphorylation ELISA in PC-3 cells (Example F). In kind it is cell-based. Particulars: cellular activity; Met autophosphorylation ELISA in PC-3 cells; read-out: c-Met IC50. The procedure, abridged:
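IC50 values derive from a 4-parameter logistic fit of phospho-Met (panTyr) sandwich ELISA signals in PC-3 lysates, scaled between DMSO and reference-inhibitor wells. Cells, starved 3 h in serum-free medium, had 1 h compound exposure (8 doses, 0.3% DMSO) before 10 min stimulation with 100 ng/mL HGF.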

Chain of Met (phospho-Met, HGF-stimulated PC-3 prostate cancer cells) (P08581 25-1390): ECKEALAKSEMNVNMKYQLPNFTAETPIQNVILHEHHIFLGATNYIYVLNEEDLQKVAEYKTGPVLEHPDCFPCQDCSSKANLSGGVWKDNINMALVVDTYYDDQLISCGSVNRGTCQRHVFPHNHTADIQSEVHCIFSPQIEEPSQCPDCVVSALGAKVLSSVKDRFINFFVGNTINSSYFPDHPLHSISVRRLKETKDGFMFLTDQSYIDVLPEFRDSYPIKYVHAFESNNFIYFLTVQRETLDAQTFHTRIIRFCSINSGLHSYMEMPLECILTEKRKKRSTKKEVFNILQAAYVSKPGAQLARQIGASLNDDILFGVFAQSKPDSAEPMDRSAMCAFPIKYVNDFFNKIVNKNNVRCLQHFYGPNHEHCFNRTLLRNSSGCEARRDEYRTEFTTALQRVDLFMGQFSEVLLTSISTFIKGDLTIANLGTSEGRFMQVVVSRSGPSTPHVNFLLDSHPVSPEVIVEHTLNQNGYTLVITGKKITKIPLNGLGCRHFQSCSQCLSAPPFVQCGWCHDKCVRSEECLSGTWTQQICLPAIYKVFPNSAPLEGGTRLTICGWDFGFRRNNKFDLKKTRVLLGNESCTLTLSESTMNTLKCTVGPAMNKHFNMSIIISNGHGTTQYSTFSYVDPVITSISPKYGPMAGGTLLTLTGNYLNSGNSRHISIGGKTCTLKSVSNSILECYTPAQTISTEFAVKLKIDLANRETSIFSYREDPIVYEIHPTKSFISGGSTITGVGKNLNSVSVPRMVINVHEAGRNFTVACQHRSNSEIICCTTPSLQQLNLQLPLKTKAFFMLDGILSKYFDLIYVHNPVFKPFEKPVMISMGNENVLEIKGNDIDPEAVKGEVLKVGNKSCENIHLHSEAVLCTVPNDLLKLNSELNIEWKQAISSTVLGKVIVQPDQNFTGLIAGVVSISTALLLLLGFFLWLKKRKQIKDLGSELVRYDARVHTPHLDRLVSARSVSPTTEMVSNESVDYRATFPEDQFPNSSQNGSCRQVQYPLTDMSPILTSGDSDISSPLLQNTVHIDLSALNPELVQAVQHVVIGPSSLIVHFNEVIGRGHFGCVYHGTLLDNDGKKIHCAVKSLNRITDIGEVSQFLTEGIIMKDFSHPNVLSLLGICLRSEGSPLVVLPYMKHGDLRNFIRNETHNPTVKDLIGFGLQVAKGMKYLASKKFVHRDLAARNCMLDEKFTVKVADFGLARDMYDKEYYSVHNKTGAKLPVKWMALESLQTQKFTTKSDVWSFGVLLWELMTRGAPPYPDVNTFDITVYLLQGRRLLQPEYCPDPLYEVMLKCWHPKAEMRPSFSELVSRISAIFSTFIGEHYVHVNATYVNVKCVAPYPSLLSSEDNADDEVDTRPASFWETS
Chain of Human MER (residues 528-999) (Q12866 528-999): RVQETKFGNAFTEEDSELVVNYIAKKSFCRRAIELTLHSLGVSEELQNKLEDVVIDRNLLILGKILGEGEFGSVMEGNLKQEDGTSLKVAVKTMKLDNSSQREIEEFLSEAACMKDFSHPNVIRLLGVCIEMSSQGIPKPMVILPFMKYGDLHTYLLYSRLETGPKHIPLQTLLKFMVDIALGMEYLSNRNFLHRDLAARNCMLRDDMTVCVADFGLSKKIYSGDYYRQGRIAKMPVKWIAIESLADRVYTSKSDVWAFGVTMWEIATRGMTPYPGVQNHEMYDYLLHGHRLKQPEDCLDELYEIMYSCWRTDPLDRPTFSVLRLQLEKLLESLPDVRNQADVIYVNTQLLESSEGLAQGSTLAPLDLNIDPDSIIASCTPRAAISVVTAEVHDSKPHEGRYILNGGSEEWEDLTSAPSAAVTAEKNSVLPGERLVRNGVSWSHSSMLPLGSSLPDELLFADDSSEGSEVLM

In the case of `COc1ccc2nccc(Oc3ccc(NC(=O)c4c(C)ncn(-c5ccc(F)cc5)c4=O)cc3F)c2n1` [Compound 234, N-[3-Fluoro-4-[(6-methoxy-1,5-naphthyridin-4-yl)oxy]phenyl]-1-(4-fluorophenyl)-4-methyl-6-oxopyrimidine-5-carboxamide], the IC50 in test [1] and in test [2] was below 100 nM in each case.
For `COc1cc2nccc(Oc3ccc(NC(=O)c4c(C)ncc(-c5ccc(F)cc5)c4O)cc3)c2nc1OC` [Compound 235, N-[4-[(6,7-Dimethoxy-1,5-naphthyridin-4-yl)oxy]phenyl]-5-(4-fluorophenyl)-4-hydroxy-2-methylpyridine-3-carboxamide], the IC50 in test [1] and in test [2] was below 100 nM each time.
Take `COc1cnc2c(Oc3ccc(NC(=O)c4c(C)ncc(-c5ccc(F)cc5)c4O)cc3)ccnc2c1` [Compound 236, 5-(4-Fluorophenyl)-4-hydroxy-N-[4-[(7-methoxy-1,5-naphthyridin-4-yl)oxy]phenyl]-2-methylpyridine-3-carboxamide]: the IC50 in test [1] and in test [2] was below 100 nM throughout.
As to `COc1cc2nccc(Oc3ccc(NC(=O)c4c(C)ncc(-c5ccc(F)cc5)c4O)cc3F)c2nc1OC` [Compound 237, N-[4-[(6,7-Dimethoxy-1,5-naphthyridin-4-yl)oxy]-3-fluorophenyl]-5-(4-fluorophenyl)-4-hydroxy-2-methylpyridine-3-carboxamide], the IC50 in test [1] and in test [2] was below 100 nM each time.
With `COc1cnc2c(Oc3ccc(NC(=O)c4c(C)n(C)cc(-c5ccc(F)cc5)c4=O)cc3F)ccnc2c1` [Compound 239, N-[3-Fluoro-4-[(7-methoxy-1,5-naphthyridin-4-yl)oxy]phenyl]-5-(4-fluorophenyl)-1,2-dimethyl-4-oxopyridine-3-carboxamide], the IC50 is below 100 nM in test [1] and 100 to 300 nM in test [2].
The like results for `CCn1cc(-c2ccc(F)cc2)c(=O)c(C(=O)Nc2ccc(Oc3ccnc4cc(OC)cnc34)c(F)c2)c1C` [Compound 240, 1-Ethyl-N-[3-fluoro-4-[(7-methoxy-1,5-naphthyridin-4-yl)oxy]phenyl]-5-(4-fluorophenyl)-2-methyl-4-oxopyridine-3-carboxamide] were, in that order, below 100 nM and below 100 nM.
The like results for `COc1cnc2c(Oc3ccc(NC(=O)c4cnc(C(F)(F)F)c(-c5ccc(F)cc5)c4O)cc3F)ccnc2c1` [Compound 241, N-[3-Fluoro-4-[(7-methoxy-1,5-naphthyridin-4-yl)oxy]phenyl]-5-(4-fluorophenyl)-4-hydroxy-6-(trifluoromethyl)pyridine-3-carboxamide] were, in that order, below 100 nM and below 100 nM.
The like results for `COc1ccc2nccc(Oc3ccc(NC(=O)c4c(C)ncc(-c5ccc(F)cc5)c4O)cc3F)c2n1` [Compound 242, N-[3-Fluoro-4-[(6-methoxy-1,5-naphthyridin-4-yl)oxy]phenyl]-5-(4-fluorophenyl)-4-hydroxy-2-methylpyridine-3-carboxamide] were, in that order, below 100 nM and below 100 nM.
`COc1ccc2nccc(Oc3ccc(NC(=O)c4c(C)n(C)cc(-c5ccc(F)cc5)c4=O)cc3F)c2n1` [Compound 243, N-[3-Fluoro-4-[(6-methoxy-1,5-naphthyridin-4-yl)oxy]phenyl]-5-(4-fluorophenyl)-1,2-dimethyl-4-oxopyridine-3-carboxamide]: the IC50 in test [1] and in test [2] was below 100 nM throughout.
As for `COc1cnc2c(Oc3ccc(NC(=O)c4n[nH]c(C)c(-c5ccc(F)cc5)c4=O)cc3)ccnc2c1` [Compound 245, 5-(4-Fluorophenyl)-N-[4-[(7-methoxy-1,5-naphthyridin-4-yl)oxy]phenyl]-6-methyl-4-oxo-1H-pyridazine-3-carboxamide], the IC50 in test [1] and in test [2] was below 100 nM each time.
On to `COc1cnc2c(Oc3ccc(NC(=O)c4n[nH]c(C)c(-c5ccc(F)cc5)c4=O)cc3F)ccnc2c1` [Compound 246, N-[3-Fluoro-4-[(7-methoxy-1,5-naphthyridin-4-yl)oxy]phenyl]-5-(4-fluorophenyl)-6-methyl-4-oxo-1H-pyridazine-3-carboxamide], for which the IC50 in test [1] and in test [2] was below 100 nM throughout.
As for `COc1cc2nccc(Oc3ccc(NC(=O)c4n[nH]c(C)c(-c5ccc(F)cc5C)c4=O)cc3)c2nc1OC` [Compound 247, N-[4-[(6,7-Dimethoxy-1,5-naphthyridin-4-yl)oxy]phenyl]-5-(4-fluoro-2-methylphenyl)-6-methyl-4-oxo-1H-pyridazine-3-carboxamide], the IC50 in test [1] and in test [2] was below 100 nM throughout.
For `COc1cnc2c(Oc3ccc(NC(=O)c4n[nH]c(C)c(-c5ccc(F)cc5C)c4=O)cc3)ccnc2c1` [Compound 248, 5-(4-Fluoro-2-methylphenyl)-N-[4-[(7-methoxy-1,5-naphthyridin-4-yl)oxy]phenyl]-6-methyl-4-oxo-1H-pyridazine-3-carboxamide], the IC50 in test [1] and in test [2] was below 100 nM in each case.
For `COc1cnc2c(Oc3ccc(NC(=O)c4n[nH]c(C)c(-c5ccc(F)cc5C)c4=O)cc3F)ccnc2c1` [Compound 249A, N-[3-Fluoro-4-[(7-methoxy-1,5-naphthyridin-4-yl)oxy]phenyl]-5-(4-fluoro-2-methylphenyl)-6-methyl-4-oxo-1H-pyridazine-3-carboxamide], the IC50 in test [1] and in test [2] was below 100 nM throughout.
In the case of `COc1cnc2c(Oc3ccc(NC(=O)c4nn(C)c(C)c(-c5ccc(F)cc5)c4=O)cc3F)ccnc2c1` [Compound 250, N-[3-Fluoro-4-[(7-methoxy-1,5-naphthyridin-4-yl)oxy]phenyl]-5-(4-fluorophenyl)-1,6-dimethyl-4-oxopyridazine-3-carboxamide], the IC50 in test [1] and in test [2] was below 100 nM in each case.
As for `COc1cnc2c(Oc3ccc(NC(=O)c4nn(C)c(C)c(-c5ccc(F)cc5)c4=O)cc3)ccnc2c1` [Compound 251, 5-(4-Fluorophenyl)-N-[4-[(7-methoxy-1,5-naphthyridin-4-yl)oxy]phenyl]-1,6-dimethyl-4-oxopyridazine-3-carboxamide], the IC50 in test [1] and in test [2] was below 100 nM each time.
Consider `COCCOc1nc2c(Oc3ccc(NC(=O)c4n[nH]c(C)c(-c5ccc(F)cc5C)c4=O)cc3F)ccnc2cc1OC` [Compound 252, N-[3-Fluoro-4-[[7-methoxy-6-(2-methoxyethoxy)-1,5-naphthyridin-4-yl]oxy]phenyl]-5-(4-fluoro-2-methylphenyl)-6-methyl-4-oxo-1H-pyridazine-3-carboxamide], for which the IC50 in test [1] and in test [2] was below 100 nM throughout.
Consider `COc1cnc2c(Oc3ccc(NC(=O)c4c(C)ncn(-c5ccc(F)cc5)c4=O)cc3F)ccnc2c1` [Compound 256, N-[3-Fluoro-4-[(7-methoxy-1,5-naphthyridin-4-yl)oxy]phenyl]-1-(4-fluorophenyl)-4-methyl-6-oxopyrimidine-5-carboxamide], for which the results for the IC50 in test [1] and in test [2] were below 100 nM and 100 to 300 nM, respectively.
The like results for `COc1cnc2c(Oc3ccc(NC(=O)c4c(C)nc(C)n(-c5ccc(F)cc5)c4=O)cc3F)ccnc2c1` [Compound 257, N-[3-Fluoro-4-[(7-methoxy-1,5-naphthyridin-4-yl)oxy]phenyl]-1-(4-fluorophenyl)-2,4-dimethyl-6-oxopyrimidine-5-carboxamide] were, in that order, below 100 nM and below 100 nM.
The like results for `COc1cnc2c(Oc3ccc(NC(=O)c4c(C)nc(C)n(-c5ccc(F)cc5)c4=O)cc3)ccnc2c1` [Compound 258, 1-(4-Fluorophenyl)-N-[4-[(7-methoxy-1,5-naphthyridin-4-yl)oxy]phenyl]-2,4-dimethyl-6-oxopyrimidine-5-carboxamide] were, in that order, below 100 nM and below 100 nM.
On to `COc1cc2nccc(Oc3ccc(NC(=O)c4cn(CC(F)(F)F)c(C)c(-c5ccc(F)cc5)c4=O)cc3F)c2cc1OC` [Compound 259, N-[4-(6,7-Dimethoxyquinolin-4-yl)oxy-3-fluorophenyl]-5-(4-fluorophenyl)-6-methyl-4-oxo-1-(2,2,2-trifluoroethyl)pyridine-3-carboxamide], for which the IC50 in test [1] and in test [2] was below 100 nM throughout.
Turning to `COc1cnc2c(Oc3ccc(NC(=O)c4cn(CC(F)(F)F)c(C)c(-c5ccc(F)cc5)c4=O)cc3F)ccnc2c1` [Compound 261, N-[3-Fluoro-4-[(7-methoxy-1,5-naphthyridin-4-yl)oxy]phenyl]-5-(4-fluorophenyl)-6-methyl-4-oxo-1-(2,2,2-trifluoroethyl)pyridine-3-carboxamide], the IC50 in test [1] and in test [2] was below 100 nM in each case.
Consider `COc1cc2nccc(Oc3ccc(NC(=O)c4ncc(C)n(-c5ccc(F)cc5)c4=O)cc3)c2nc1OC` [Compound 262, N-[4-[(6,7-Dimethoxy-1,5-naphthyridin-4-yl)oxy]phenyl]-4-(4-fluorophenyl)-5-methyl-3-oxopyrazine-2-carboxamide], for which the IC50 in test [1] and in test [2] was below 100 nM throughout.
